17 compounds from patent publication US20250235462A1, “NOVEL CAPSID ASSEMBLY INHIBITORS” (AM SCIENCES INC, priority 2021, published 2025) can be followed below.

As a reminder, the inhibition is the share of the control response that was lost under treatment. Broadly, the EC50 is the concentration giving half of the maximal effect. As usually defined, the CC50 is the concentration giving 50% cytotoxicity. Broadly, the IC50 is the concentration that inhibits the measured activity by half. A lower IC50 goes with greater potency in that assay.

For data set [1], the target named is Protein (capsid assembly) (Hepatitis B virus genotype D subtype ayw, UniProt P03146). In words: Protein inhibition (capsid assembly inhibition), Table 1. In kind it is biochemical.
Protein (capsid assembly), sequence (P03146 whole entry): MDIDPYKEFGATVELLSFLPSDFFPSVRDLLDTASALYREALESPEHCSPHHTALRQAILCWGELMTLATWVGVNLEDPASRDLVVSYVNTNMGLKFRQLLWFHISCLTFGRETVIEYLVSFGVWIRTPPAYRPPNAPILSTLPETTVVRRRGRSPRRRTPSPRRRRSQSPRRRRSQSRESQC
A short description of data set [2]: Cell viability assay (EZ-Cytox) in HepAD38 cells. The note with it: human, 65 hours of treatment; for CC50 at 65 h: read-out: Cytotoxicity CC50; for viability at 65 h, 100 µM: read-out: Cytotoxicity % Livability (@100 μM). It counts as cell-based. As to the method: HepAD38 cells were cultured for 2 days in Dulbecco's Modified Eagle's medium (Welgene, LM001-05) supplemented with 10% FBS without tetracycline. The cells were seeded in 48-well culture plates (1×10^5 cells/well) and treated with each compound at five concentrations (0 μM (0.8% DMSO as a control), 33 μM, 50 μM, 66 μM, and 100 μM). After 65 hours of treatment, viability was measured using EZ-Cytox cell viability assay kit (Daeil Lab Service) according to the manufacturer's instructions. The absorbance was measured at 450 nm using a spectrophotometer (Spark, Tecan). Here, NVR-3-778 (denoted as NVR) was used as a positive control.

The test system of the next data set is intracellular HBV DNA. In words: Real-time PCR for intracellular HBV DNA in HepAD38 cells. It counts as cell-based, hepatitis B virus (HBV). Conditions: Hepatitis B virus, HePAD38, 65 h, treated for 65 hours, intracellular HBV DNA by real-time PCR. As to the method:
HepAD38 cells were cultured in DMEM medium (Welgene) supplemented with 200 unit/mL penicillin, 200 μg/mL streptomycin, and 10% FBS. During maintenance and passage, the cells were cultured together with 0.4 μg/mL tetracycline. Two days before the treatment with compounds for inducing HBV replication was started, the medium was replaced with a tetracycline-free complete growth medium. […]
HepAD38 cells were treated with a compound for 65 hours and then recovered, and intracellular HBV DNA was extracted therefrom according to the protocol in the DNeasy Blood & Tissue Kit (Qiagen). The primers and probes used to quantify HBV DNA were 5′-[…]-3′, 5′-[…]-3′, and 5′-/56-FAM/TGT CCT GGT/ZEN/[…]/3IABKFQ/-3′. The HBV DNA was amplified by real-time PCR assay using LightCycler 480 (Roche) (J. Virol., 2018, 92(16):e00339-18). All of the processes were confirmed in duplicate.

The mark [3] stands for this setting: @30 μM, read-out: Protein % inhibition rate (@30 μM).
[4] abbreviates: NVR value of the same run in brackets, read-out: Protein EC50.

Molecules are shown by their SMILES. Where two headings read alike, the source gives them in different places. Where only a bound is given, the exact number is not on record here.

As to `COc1ccc(N(Cc2nnc3n2CCOCC3)C(=O)Nc2ccc(F)c(Cl)c2)cc1` [Example 27, 3-(3-Chloro-4-fluorophenyl)-1-(4-methoxyphenyl)-1-((5,6,8,9-tetrahydro-[1,2,4]triazolo[4,3-d][1,4]oxazepin-3-yl)methyl)urea], the inhibition at 30 µM in data set [1] (setting [3]) was found to be 65%. Further, the half-maximal effective concentration (EC50) in data set [1] (setting [4]) stood at 2.3 µM. Further, in data set [2], the CC50 at 65 h was greater than 100 µM and the viability at 65 h, 100 µM amounted to 91%. In addition, it took 0.032 µM to reach half-maximal inhibition with intracellular HBV DNA (IC50).
Turning to `COc1ccc(N(Cc2nnc(C)n2C(C)C)C(=O)Nc2ccc(F)c(Cl)c2)cc1` [Example 26, 3-(3-Chloro-4-fluorophenyl)-1-((4-isopropyl-5-methyl-4H-1,2,4-triazol-3-yl)methyl)-1-(4-methoxyphenyl)urea], the EC50 in data set [1] (setting [4]) stood at 6.2 µM. In addition, the inhibition at 30 µM in data set [1] (read-out: Protein % inhibition rate (@30 μM), @30 μM) is 2%. For the same compound, in data set [2], the CC50 at 65 h was greater than 100 µM and the viability at 65 h, 100 µM came out at 91.5%. 0.184 µM corresponded to half-maximal inhibition with intracellular HBV DNA (IC50).
Consider `N#Cc1cccc(NC(=O)N(Cc2nnc3n2CCCCC3)c2ccc3c(c2)OCO3)c1` [Example 8, 1-(Benzo[d][1,3]dioxol-5-yl)-3-(3-cyanophenyl)-1-((6,7,8,9-tetrahydro-5H-[1,2,4]triazolo[4,3-a]azepin-3-yl)methyl)urea], for which the inhibition at 30 µM in data set [1] (setting [3]) amounted to 83%. The EC50 in data set [1] (setting [4]) was 1.8 µM. Further, in data set [2], the CC50 at 65 h was greater than 100 µM and the viability at 65 h, 100 µM came out at 91.6%. The IC50 with intracellular HBV DNA amounted to 0.27 µM.
For `COc1ccc(N(Cc2nnc3n2CCCCC3)C(=O)Nc2ccc(F)c(Cl)c2)cn1` [Example 44, 3-(3-Chloro-4-fluorophenyl)-1-(6-methoxypyridin-3-yl)-1-((6,7,8,9-tetrahydro-5H-[1,2,4]triazolo[4,3-a]azepin-3-yl)methyl)urea] the same measures were 82%, 1.4 µM, greater than 100 µM, 103% and 0.05 µM.
In the case of `O=C(Nc1ccc(F)c(Cl)c1)N(Cc1nnc2n1CCOC2)c1ccc2c(c1)OCO2` [Example 42, 1-(Benzo[d][1,3]dioxol-5-yl)-3-(3-chloro-4-fluorophenyl)-1-((6,8-dihydro-5H-[1,2,4]triazolo[3,4-c][1,4]oxazin-3-yl)methyl)urea], in data set [1] (@30 μM), the “Protein % inhibition rate (@30 μM)” value is recorded as 20%. In addition, the concentration giving a half-maximal response (EC50) in data set [1] (setting [4]) is 6.8 µM. In data set [2], the half-maximal cytotoxic concentration (CC50) at 65 h was greater than 100 µM and the viability at 65 h, 100 µM came to 83.7%. The IC50 in the data set with intracellular HBV DNA turned out to be 0.21 µM.
For the compound `O=C(Nc1ccc(F)c(Cl)c1)N(Cc1nnc2n1CCCCC2)c1ccc2c(c1)OCO2` [Example 2, 1-(Benzo[d][1,3]dioxol-5-yl)-3-(3-chloro-4-fluorophenyl)-1-((6,7,8,9-tetrahydro-5H-[1,2,4]triazolo[4,3-a]azepin-3-yl)methyl)urea], the inhibition at 30 µM in data set [1] (setting [3]) came out at 81%. In data set [2], the CC50 at 65 h was greater than 100 µM and the viability at 65 h, 100 µM was determined as 100%. Also, inhibition in the data set on intracellular HBV DNA was half-maximal at 0.04 µM (IC50).
Take `COc1ccc(N(Cc2nnc3n2CCCC3)C(=O)Nc2ccc(F)c(Cl)c2)cc1` [Example 43, 3-(3-Chloro-4-fluorophenyl)-1-(4-methoxyphenyl)-1-((5,6,7,8-tetrahydro-[1,2,4]triazolo[4,3-a]pyridin-3-yl)methyl)urea]: the inhibition at 30 µM in data set [1] (setting [3]) was determined as 96.2%. The 50% effective concentration (EC50) in data set [1] (setting [4]) turned out to be 3.3 µM. Also, in data set [2], the cytotoxic concentration (CC50) at 65 h was greater than 100 µM and the viability at 65 h, 100 µM worked out at 103%. In addition, 0.79 µM corresponded to half-maximal inhibition in the data set with intracellular HBV DNA (IC50).
In the case of `O=C(Nc1ccc(F)c(Cl)c1)N(Cc1nnc2n1CCOCC2)c1ccc2c(c1)OCO2` [Example 7, 1-(Benzo[d][1,3]dioxol-5-yl)-3-(3-chloro-4-fluorophenyl)-1-((5,6,8,9-tetrahydro-[1,2,4]triazolo[4,3-d][1,4]oxazepin-3-yl)methyl)urea], in data set [1] (setting [3]), the inhibition at 30 µM is 80%. Moreover, the concentration for a half-maximal effect (EC50) in data set [1] (setting [4]) amounted to 1 µM. Besides, in data set [2], the 50% cytotoxic concentration (CC50) at 65 h was greater than 100 µM and the viability at 65 h, 100 µM came to 96.4%. Also, 0.03 µM corresponded to half-maximal inhibition in the data set with intracellular HBV DNA (IC50).
Turning to `O=C(Nc1ccc(F)c(Cl)c1)N(Cc1nnc2n1CCCCC2)c1ccc2ncsc2c1` [Example 16, 1-(Benzo[d]thiazol-6-yl)-3-(3-chloro-4-fluorophenyl)-1-((6,7,8,9-tetrahydro-5H-[1,2,4]triazolo[4,3-a]azepin-3-yl)methyl)urea], the inhibition at 30 µM in data set [1] (setting [3]) came to 80.9%. Besides, the EC50 in data set [1] (setting [4]) came out at 2.2 µM. For the same compound, in data set [2], the 50% cytotoxic concentration (CC50) at 65 h is greater than 100 µM and the viability at 65 h, 100 µM turned out to be 93.9%. Besides, the concentration for half-maximal inhibition (IC50) in the data set with intracellular HBV DNA stood at 0.124 µM.
For `COc1ccc(N(Cc2nnc3n2CCCCC3)C(=O)Nc2ccc(F)c(Cl)c2)cc1` [Example 3, 3-(3-Chloro-4-fluorophenyl)-1-(4-methoxyphenyl)-1-((6,7,8,9-tetrahydro-5H-[1,2,4]triazolo[4,3-a]azepin-3-yl)methyl)urea] the same measures were 89%, 1.6 µM, greater than 100 µM, 91.9% and 0.19 µM.
`O=C(Nc1ccc(F)c(Cl)c1)N(Cc1nnc2n1CCCCC2)c1ccon1` [Example 36, 3-(3-Chloro-4-fluorophenyl)-1-(isoxazol-3-yl)-1-((6,7,8,9-tetrahydro-5H-[1,2,4]triazolo[4,3-a]azepin-3-yl)methyl)urea]: the inhibition at 30 µM in data set [1] (setting [3]) stood at 77.6%. In data set [1] (setting [4]), the EC50 came out at 1.5 µM. Besides, in data set [2], the cytotoxic concentration (CC50) at 65 h was greater than 100 µM and the viability at 65 h, 100 µM came to 90.4%. The compound further gave an IC50 with intracellular HBV DNA of 0.4 µM.
For `CC(c1nnc2n1CCOCC2)N(C(=O)Nc1ccc(F)c(Cl)c1)c1ccc2c(c1)OCO2` (stereo not drawn) [Example 33, 1-(Benzo[d][1,3]dioxol-5-yl)-3-(3-chloro-4-fluorophenyl)-1-(1-(5,6,8,9-tetrahydro-[1,2,4]triazolo[4,3-d][1,4]oxazepin-3-yl)ethyl)urea] the same measures were 26%, 4.3 µM, greater than 100 µM, 88.3% and 0.36 µM.
The corresponding values for `O=C(Nc1ccc(F)c(Cl)c1)N(Cc1nnc2n1CCCCC2)c1ccc(F)c(F)c1` [Example 22, 3-(3-Chloro-4-fluorophenyl)-1-(3,4-difluorophenyl)-1-((6,7,8,9-tetrahydro-5H-[1,2,4]triazolo[4,3-a]azepin-3-yl)methyl)urea] are 43%, 2.6 µM, greater than 100 µM, 92.9% and 0.4 µM.
For `O=C(Nc1ccc(F)c(Cl)c1)N(Cc1nnc2n1CCCCC2)c1ccc(C(F)(F)F)cc1` [Example 13, 3-(3-Chloro-4-fluorophenyl)-1-((6,7,8,9-tetrahydro-5H-[1,2,4]triazolo[4,3-a]azepin-3-yl)methyl)-1-(4-(trifluoromethyl)phenyl)urea] the same measures were 89%, 5 µM, greater than 100 µM, 106% and 0.23 µM.
As to `O=C(Nc1cccc(Cl)c1)N(Cc1nnc2n1CCCC2)c1ccc2c(c1)OCO2` [Example 41, 1-(Benzo[d][1,3]dioxol-5-yl)-3-(3-chlorophenyl)-1-((5,6,7,8-tetrahydro-[1,2,4]triazolo[4,3-a]pyridin-3-yl)methyl)urea], the inhibition at 30 µM in data set [1] (setting [3]) worked out at 59%. Besides, the EC50 in data set [1] (setting [4]) was found to be 2.9 µM. In data set [2], the CC50 at 65 h is greater than 100 µM and the viability at 65 h, 100 µM was determined as 97.1%. Moreover, 0.23 µM corresponded to half-maximal inhibition with intracellular HBV DNA (IC50).
The corresponding values for `COc1ccc(N(C(=O)Nc2ccc(F)c(Cl)c2)C(C)c2nnc3n2CCCCC3)cc1` (stereo not drawn) [Example 23, 3-(3-Chloro-4-fluorophenyl)-1-(4-methoxyphenyl)-1-(1-(6,7,8,9-tetrahydro-5H-[1,2,4]triazolo[4,3-a]azepin-3-yl)ethyl)urea] are 47%, 3.1 µM, greater than 100 µM, 95.1% and 0.32 µM.
With `Cc1cccc(NC(=O)N(Cc2nnc3n2CCCCC3)c2ccc3c(c2)OCO3)c1` [Example 1, 1-(Benzo[d][1,3]dioxol-5-yl)-1-((6,7,8,9-tetrahydro-5H-[1,2,4]triazolo[4,3-a]azepin-3-yl)methyl)-3-m-tolylurea], the response in data set [1] was half-maximal at 1.3 µM (EC50). Besides, the inhibition at 30 µM in data set [1] (setting [3]) stood at 72%. In data set [2], the CC50 at 65 h is greater than 100 µM and the viability at 65 h, 100 µM was 95%. In addition, the IC50 with intracellular HBV DNA turned out to be 0.02 µM.
